Values quoted from earlier work as cited in publication PMC8869242 (Biomedicines, 2022).
Like-named read-outs stand apart in the source and are kept apart here.

Experiments:
[1] = test system: Ehrlich ascites carcinoma (EAC); settings: cited from earlier work; for mice died during treatment: two injections per week for 2 weeks
CAM = test system: CAM; set-up: method as in PMID 34339726; settings: concentration of 5 mg/mL; cited from earlier work
[2] = test system: endothelial cells (HUVEC); set-up: method as in PMID 34339726; settings: cited from earlier work

**Q.** For O.O.O.O.O=C1[N-]S(=O)(=O)c2ccccc21.O=C1c2ccccc2S(=O)(=O)[N]1[Pd+].c1ccc(-c2cccc(-c3ccccn3)n2)nc1 [[Pd(sac)(terpy)](sac)·4H2O], which tumor volume reduction ([1]; i.p. 2 mg/kg, two injections per week for 2 weeks (cumulative 8 mg/kg)) is on record?
**A.** 67.5%

**Q.** And the “mice died during treatment” value ([1]; i.p. 2 mg/kg)?
**A.** 1 of 10

**Q.** Which “angiogenesis in CAM assay” value (CAM) does the source give for O.O.O=C1[N-]S(=O)(=O)c2ccccc21.[Cl][Pd+].c1ccc(-c2cccc(-c3ccccn3)n2)nc1 [[PdCl(terpy)](sac)·2H2O] here?
**A.** inhibition of angiogenesis

**Q.** What about the “concentration range showing inhibition of migration of endothelial cells (HUVEC)” value [2] of the same molecule?
**A.** 12.5 to 50 µM

**Q.** What about the tumor volume reduction ([1]; 3 mg/kg, two injections per week for 2 weeks (cumulative 12 mg/kg)) of the same molecule?
**A.** 69.8%

**Q.** What about the “mice died during treatment” value ([1]; 3 mg/kg) of the same molecule?
**A.** 1 of 9
